Test results published in ChEMBL document CHEMBL4804286, “3-amino-4-(4-(4 (dimethylcarbamoyl) phenyl)-1,4-diazepan-1-yl) thieno [2,3-b] pyridine-2-carboxamide for use in cancer therapy and formulations comprising the same” (2020).
Values joined by “and” are separate entries in the source; they are usually repeats but may differ in a detail not shown here. Equal values may be shown once. Active and inactive are the calls of the source. The rule behind the calls is not given here.

Key:
[1] = biological target: Serine/threonine-protein kinase BRSK1 (Homo sapiens) (UniProt Q8TDC3); test: Inhibition of human BRSK1 assessed as percent of control at 2000 nM by KINOMEscan assay relative to control; design: scale not given: the % may be the effect or the level left
[2] = biological target: SNF-related serine/threonine-protein kinase (Homo sapiens) (UniProt Q9NRH2); test: Inhibition of human SNRK assessed as percent of control at 2000 nM by KINOMEscan assay relative to control; design: scale not given: the % may be the effect or the level left
[3] = biological target: Rho-associated protein kinase 2 (Homo sapiens) (UniProt O75116); test: Inhibition of human ROCK2 assessed as percent of control at 2000 nM by KINOMEscan assay relative to control; design: scale not given: the % may be the effect or the level left
[4] = biological target: Cyclin-dependent kinase 8/19 (Homo sapiens, UniProt P49336+Q9BWU1); details: ST-2
Description: Inhibition of CDK8/CDK19 in ST2 cells by alkaline phosphatase activity assay

Myc-CaP = test: Antitumor activity against murine castration-resistant Myc-CaP cells xenografted in male FVB mouse assessed as suppression of tumor weight in presence of enzalutamide; format: functional
[5] = biological target: Mitogen-activated protein kinase 15 (Homo sapiens) (UniProt Q8TD08); test: Inhibition of human ERK8 assessed as percent of control at 2000 nM by KINOMEscan assay relative to control; design: scale not given: the % may be the effect or the level left
[6] = tested on: Mast/stem cell growth factor receptor Kit (Homo sapiens), P10721 [D816H]; test: Inhibition of human KIT D816H mutant assessed as percent of control at 2000 nM by KINOMEscan assay relative to control; design: scale not given: the % may be the effect or the level left
[7] = biological target: Vascular endothelial growth factor receptor 3 (Homo sapiens) (UniProt P35916); test: Inhibition of human FLT4 assessed as percent of control at 2000 nM by KINOMEscan assay relative to control; design: scale not given: the % may be the effect or the level left
[8] = biological target: Tyrosine-protein kinase BTK (Homo sapiens) (UniProt Q06187); test: Inhibition of human BTK assessed as percent of control at 2000 nM by KINOMEscan assay relative to control; design: scale not given: the % may be the effect or the level left
[9] = biological target: Death-associated protein kinase 3 (Homo sapiens) (UniProt O43293); test: Inhibition of human DAPK3 assessed as percent of control at 2000 nM by KINOMEscan assay relative to control; design: scale not given: the % may be the effect or the level left
[10] = biological target: Serine/threonine-protein kinase SBK1 (Homo sapiens) (UniProt Q52WX2); test: Inhibition of human SBK1 assessed as percent of control at 2000 nM by KINOMEscan assay relative to control; design: scale not given: the % may be the effect or the level left
Serine/threonine-protein kinase SBK1 (Homo sapiens), sequence (Q52WX2 whole entry): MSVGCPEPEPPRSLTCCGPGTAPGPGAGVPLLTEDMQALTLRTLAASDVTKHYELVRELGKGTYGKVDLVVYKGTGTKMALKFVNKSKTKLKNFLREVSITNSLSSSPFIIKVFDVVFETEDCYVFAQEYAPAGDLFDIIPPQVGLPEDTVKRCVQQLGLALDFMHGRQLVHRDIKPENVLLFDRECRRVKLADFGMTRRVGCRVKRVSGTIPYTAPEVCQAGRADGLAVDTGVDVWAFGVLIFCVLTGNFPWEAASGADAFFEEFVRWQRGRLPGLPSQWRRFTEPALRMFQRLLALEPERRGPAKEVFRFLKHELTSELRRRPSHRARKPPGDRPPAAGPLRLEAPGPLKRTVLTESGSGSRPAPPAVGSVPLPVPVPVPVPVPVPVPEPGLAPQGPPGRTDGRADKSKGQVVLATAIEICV

[11] = biological target: Serine/threonine-protein kinase tousled-like 1 (Homo sapiens) (UniProt Q9UKI8); test: Inhibition of human TLK1 assessed as percent of control at 2000 nM by KINOMEscan assay relative to control; design: scale not given: the % may be the effect or the level left
[12] = biological target: Macrophage colony-stimulating factor 1 receptor (Homo sapiens) (UniProt P07333); test: Inhibition of human autoinhibited CSF1R assessed as percent of control at 2000 nM by KINOMEscan assay relative to control; design: scale not given: the % may be the effect or the level left
[13] = biological target: Serine/threonine-protein kinase MRCK gamma (Homo sapiens) (UniProt Q6DT37); test: Inhibition of human DMPK2 assessed as percent of control at 2000 nM by KINOMEscan assay relative to control; design: scale not given: the % may be the effect or the level left
Serine/threonine-protein kinase MRCK gamma (Homo sapiens), sequence (Q6DT37 whole entry): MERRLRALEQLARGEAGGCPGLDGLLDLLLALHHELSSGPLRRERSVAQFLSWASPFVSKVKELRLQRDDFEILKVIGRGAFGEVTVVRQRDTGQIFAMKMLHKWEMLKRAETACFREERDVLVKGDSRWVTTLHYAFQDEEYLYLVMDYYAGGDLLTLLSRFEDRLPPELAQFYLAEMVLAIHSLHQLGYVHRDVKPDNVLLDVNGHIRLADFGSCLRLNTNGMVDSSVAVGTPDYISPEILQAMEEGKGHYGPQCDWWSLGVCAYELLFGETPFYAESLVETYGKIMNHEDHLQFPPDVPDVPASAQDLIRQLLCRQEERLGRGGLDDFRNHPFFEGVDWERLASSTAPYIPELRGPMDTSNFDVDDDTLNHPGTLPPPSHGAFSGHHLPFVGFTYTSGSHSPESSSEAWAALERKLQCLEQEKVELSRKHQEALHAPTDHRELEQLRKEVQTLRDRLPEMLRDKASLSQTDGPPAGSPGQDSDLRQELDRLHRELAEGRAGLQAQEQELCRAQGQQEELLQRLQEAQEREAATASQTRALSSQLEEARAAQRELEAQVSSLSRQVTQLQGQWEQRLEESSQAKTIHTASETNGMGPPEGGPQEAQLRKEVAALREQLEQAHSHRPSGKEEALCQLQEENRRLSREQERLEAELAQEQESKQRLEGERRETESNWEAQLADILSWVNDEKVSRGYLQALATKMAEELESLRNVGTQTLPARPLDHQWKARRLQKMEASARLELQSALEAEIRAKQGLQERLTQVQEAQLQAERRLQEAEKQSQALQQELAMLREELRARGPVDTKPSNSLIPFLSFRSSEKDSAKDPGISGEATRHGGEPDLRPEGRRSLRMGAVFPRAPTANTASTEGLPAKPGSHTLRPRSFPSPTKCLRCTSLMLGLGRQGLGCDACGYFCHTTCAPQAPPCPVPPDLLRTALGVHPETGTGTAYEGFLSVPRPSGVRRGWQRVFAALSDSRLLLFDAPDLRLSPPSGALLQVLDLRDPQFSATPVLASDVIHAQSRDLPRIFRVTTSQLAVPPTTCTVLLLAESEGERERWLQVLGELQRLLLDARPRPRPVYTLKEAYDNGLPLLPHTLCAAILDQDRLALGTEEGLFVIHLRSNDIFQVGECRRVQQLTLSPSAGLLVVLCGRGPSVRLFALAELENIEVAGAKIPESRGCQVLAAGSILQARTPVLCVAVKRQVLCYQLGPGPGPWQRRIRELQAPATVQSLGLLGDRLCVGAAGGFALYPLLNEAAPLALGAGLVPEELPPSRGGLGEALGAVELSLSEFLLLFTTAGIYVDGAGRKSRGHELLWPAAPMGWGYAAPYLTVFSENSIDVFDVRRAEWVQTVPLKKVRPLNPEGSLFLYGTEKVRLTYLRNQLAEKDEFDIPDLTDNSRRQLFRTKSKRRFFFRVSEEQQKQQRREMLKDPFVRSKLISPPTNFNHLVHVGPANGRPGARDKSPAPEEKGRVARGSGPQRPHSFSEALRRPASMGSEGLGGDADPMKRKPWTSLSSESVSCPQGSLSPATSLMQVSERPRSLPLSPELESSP

[14] = biological target: Serine/threonine-protein kinase 17A (Homo sapiens) (UniProt Q9UEE5); test: Inhibition of human DRAK1 assessed as percent of control at 2000 nM by KINOMEscan assay relative to control; design: scale not given: the % may be the effect or the level left
Serine/threonine-protein kinase 17A (Homo sapiens), sequence (Q9UEE5 whole entry): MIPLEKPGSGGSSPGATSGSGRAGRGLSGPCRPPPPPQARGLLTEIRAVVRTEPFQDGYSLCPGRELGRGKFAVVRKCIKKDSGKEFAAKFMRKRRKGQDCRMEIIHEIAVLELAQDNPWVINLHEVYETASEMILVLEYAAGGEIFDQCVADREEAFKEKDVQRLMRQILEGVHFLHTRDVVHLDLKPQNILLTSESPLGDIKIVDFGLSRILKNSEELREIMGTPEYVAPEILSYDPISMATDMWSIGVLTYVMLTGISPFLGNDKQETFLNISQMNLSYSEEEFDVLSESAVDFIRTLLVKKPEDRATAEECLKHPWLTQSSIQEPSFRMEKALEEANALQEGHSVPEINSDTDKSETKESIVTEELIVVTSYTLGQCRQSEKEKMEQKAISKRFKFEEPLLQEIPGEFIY

[15] = biological target: Mitogen-activated protein kinase 1 (Homo sapiens) (UniProt P28482); test: Inhibition of human ERK2 assessed as percent of control at 2000 nM by KINOMEscan assay relative to control; design: scale not given: the % may be the effect or the level left
[16] = biological target: Serine/threonine-protein kinase BRSK2 (Homo sapiens) (UniProt Q8IWQ3); test: Inhibition of human BRSK2 assessed as percent of control at 2000 nM by KINOMEscan assay relative to control; design: scale not given: the % may be the effect or the level left
[17] = tested on: Epidermal growth factor receptor (Homo sapiens), P00533 [UNDEFINED MUTATION]; test: Inhibition of human EGFR E746-A750del mutant assessed as percent of control at 2000 nM by KINOMEscan assay relative to control; design: scale not given: the % may be the effect or the level left
[18] = biological target: Activin receptor type-2B (Homo sapiens) (UniProt Q13705); test: Inhibition of human ACVR2B assessed as percent of control at 2000 nM by KINOMEscan assay relative to control; design: scale not given: the % may be the effect or the level left
[19] = biological target: MAP kinase-interacting serine/threonine-protein kinase 1 (Homo sapiens) (UniProt Q9BUB5); test: Inhibition of human MKNK1 assessed as percent of control at 2000 nM by KINOMEscan assay relative to control; design: scale not given: the % may be the effect or the level left
MAP kinase-interacting serine/threonine-protein kinase 1 (Homo sapiens), sequence (Q9BUB5 whole entry, looked up): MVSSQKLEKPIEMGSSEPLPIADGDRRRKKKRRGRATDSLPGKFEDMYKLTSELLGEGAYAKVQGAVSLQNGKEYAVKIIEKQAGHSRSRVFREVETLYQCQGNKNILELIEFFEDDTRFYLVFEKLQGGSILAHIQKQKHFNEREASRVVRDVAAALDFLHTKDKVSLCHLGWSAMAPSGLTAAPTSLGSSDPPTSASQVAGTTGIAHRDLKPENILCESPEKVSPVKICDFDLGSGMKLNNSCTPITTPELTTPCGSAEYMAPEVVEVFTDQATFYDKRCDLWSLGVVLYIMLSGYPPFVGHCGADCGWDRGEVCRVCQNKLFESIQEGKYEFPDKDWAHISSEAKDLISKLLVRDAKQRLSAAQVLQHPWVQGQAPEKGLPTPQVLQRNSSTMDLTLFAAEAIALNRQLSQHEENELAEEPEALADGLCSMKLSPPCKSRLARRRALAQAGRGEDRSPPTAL

[20] = biological target: Tyrosine-protein kinase receptor Tie-1 (Homo sapiens) (UniProt P35590); test: Inhibition of human TIE1 assessed as percent of control at 2000 nM by KINOMEscan assay relative to control; design: scale not given: the % may be the effect or the level left
[21] = biological target: Serine/threonine-protein kinase 36 (Homo sapiens) (UniProt Q9NRP7); test: Inhibition of human STK36 assessed as percent of control at 2000 nM by KINOMEscan assay relative to control; design: scale not given: the % may be the effect or the level left
[22] = biological target: Dual specificity protein kinase CLK3 (Homo sapiens) (UniProt P49761); test: Inhibition of human CLK3 assessed as percent of control at 2000 nM by KINOMEscan assay relative to control; design: scale not given: the % may be the effect or the level left
[23] = biological target: Ribosomal protein S6 kinase alpha-3 (Homo sapiens) (UniProt P51812); test: Inhibition of human C-terminal RSK2 kinase domain 2 assessed as percent of control at 2000 nM by KINOMEscan assay relative to control; design: scale not given: the % may be the effect or the level left
[24] = biological target: Serine/threonine-protein kinase Chk2 (Homo sapiens) (UniProt O96017); test: Inhibition of human CHEK2 assessed as percent of control at 2000 nM by KINOMEscan assay relative to control; design: scale not given: the % may be the effect or the level left
[25] = tested on: Proto-oncogene tyrosine-protein kinase receptor Ret (Homo sapiens), P07949 [M918T]; test: Inhibition of human RET M918T mutant assessed as percent of control at 2000 nM by KINOMEscan assay relative to control; design: scale not given: the % may be the effect or the level left
Proto-oncogene tyrosine-protein kinase receptor Ret (Homo sapiens), P07949 [M918T], sequence (P07949 whole entry M918T): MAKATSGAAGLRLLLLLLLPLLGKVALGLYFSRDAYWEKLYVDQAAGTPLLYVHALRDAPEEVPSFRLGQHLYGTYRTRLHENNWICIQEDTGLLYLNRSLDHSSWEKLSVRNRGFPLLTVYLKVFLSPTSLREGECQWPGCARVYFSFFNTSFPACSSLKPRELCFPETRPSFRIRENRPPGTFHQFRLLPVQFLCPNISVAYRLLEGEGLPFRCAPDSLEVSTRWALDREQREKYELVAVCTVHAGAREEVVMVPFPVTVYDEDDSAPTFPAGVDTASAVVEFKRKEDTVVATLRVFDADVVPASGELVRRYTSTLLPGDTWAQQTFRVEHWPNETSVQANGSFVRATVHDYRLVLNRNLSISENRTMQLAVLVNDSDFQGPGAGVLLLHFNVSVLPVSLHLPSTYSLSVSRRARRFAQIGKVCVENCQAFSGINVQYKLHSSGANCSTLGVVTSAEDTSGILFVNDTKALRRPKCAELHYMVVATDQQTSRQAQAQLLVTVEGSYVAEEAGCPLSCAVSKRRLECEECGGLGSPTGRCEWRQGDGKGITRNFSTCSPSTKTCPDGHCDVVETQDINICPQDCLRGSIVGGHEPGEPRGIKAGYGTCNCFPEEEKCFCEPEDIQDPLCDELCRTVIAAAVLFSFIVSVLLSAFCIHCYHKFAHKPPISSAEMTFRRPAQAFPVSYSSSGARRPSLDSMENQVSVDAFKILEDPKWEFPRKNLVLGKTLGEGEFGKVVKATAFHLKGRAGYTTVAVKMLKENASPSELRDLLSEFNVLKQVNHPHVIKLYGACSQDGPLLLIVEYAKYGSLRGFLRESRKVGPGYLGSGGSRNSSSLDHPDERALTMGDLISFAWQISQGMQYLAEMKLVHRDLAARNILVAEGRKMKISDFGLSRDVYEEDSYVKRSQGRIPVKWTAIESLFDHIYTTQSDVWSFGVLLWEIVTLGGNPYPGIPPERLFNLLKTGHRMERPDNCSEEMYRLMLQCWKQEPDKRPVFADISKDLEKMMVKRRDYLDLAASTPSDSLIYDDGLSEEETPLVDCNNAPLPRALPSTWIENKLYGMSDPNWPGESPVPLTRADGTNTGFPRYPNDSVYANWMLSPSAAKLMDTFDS

[26] = biological target: Aurora kinase A (Homo sapiens) (UniProt O14965); test: Inhibition of human AURKA assessed as percent of control at 2000 nM by KINOMEscan assay relative to control; design: scale not given: the % may be the effect or the level left
[27] = biological target: Cyclin-dependent kinase 11A (Homo sapiens) (UniProt Q9UQ88); test: Inhibition of human CDC2L2 assessed as percent of control at 2000 nM by KINOMEscan assay relative to control; design: scale not given: the % may be the effect or the level left
[28] = biological target: Serine/threonine-protein kinase WNK3 (Homo sapiens) (UniProt Q9BYP7); test: Inhibition of human WNK3 assessed as percent of control at 2000 nM by KINOMEscan assay relative to control; design: scale not given: the % may be the effect or the level left
[29] = biological target: Mitogen-activated protein kinase kinase kinase kinase 3 (Homo sapiens) (UniProt Q8IVH8); test: Inhibition of human MAP4K3 assessed as percent of control at 2000 nM by KINOMEscan assay relative to control; design: scale not given: the % may be the effect or the level left
Mitogen-activated protein kinase kinase kinase kinase 3 (Homo sapiens), sequence (Q8IVH8 whole entry, the tested form may be a part): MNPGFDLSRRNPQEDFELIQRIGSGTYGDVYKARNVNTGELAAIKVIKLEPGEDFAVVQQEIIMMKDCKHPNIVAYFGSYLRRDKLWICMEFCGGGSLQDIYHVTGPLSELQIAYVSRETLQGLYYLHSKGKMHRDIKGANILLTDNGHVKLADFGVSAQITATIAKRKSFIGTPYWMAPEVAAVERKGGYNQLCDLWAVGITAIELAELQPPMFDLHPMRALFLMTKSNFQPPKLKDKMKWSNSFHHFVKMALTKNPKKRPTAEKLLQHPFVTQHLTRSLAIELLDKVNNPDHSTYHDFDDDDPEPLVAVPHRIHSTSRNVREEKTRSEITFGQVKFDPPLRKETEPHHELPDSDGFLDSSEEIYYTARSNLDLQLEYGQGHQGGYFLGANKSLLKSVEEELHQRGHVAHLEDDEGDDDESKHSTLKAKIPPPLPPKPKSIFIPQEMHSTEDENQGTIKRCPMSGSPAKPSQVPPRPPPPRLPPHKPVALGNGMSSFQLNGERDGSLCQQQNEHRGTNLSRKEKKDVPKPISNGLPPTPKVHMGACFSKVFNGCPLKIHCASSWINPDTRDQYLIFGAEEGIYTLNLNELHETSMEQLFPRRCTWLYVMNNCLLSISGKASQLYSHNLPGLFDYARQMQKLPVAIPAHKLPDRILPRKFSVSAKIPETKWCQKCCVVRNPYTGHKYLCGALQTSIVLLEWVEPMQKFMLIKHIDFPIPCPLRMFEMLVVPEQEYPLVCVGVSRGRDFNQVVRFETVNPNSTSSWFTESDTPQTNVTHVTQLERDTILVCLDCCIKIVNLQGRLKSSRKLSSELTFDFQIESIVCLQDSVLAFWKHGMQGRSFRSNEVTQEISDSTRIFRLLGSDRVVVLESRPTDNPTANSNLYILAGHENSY

[30] = tested on: eIF-2-alpha kinase GCN2 (Homo sapiens), Q9P2K8 [S808G]; test: Inhibition of human GCN2 S808G mutant kinase domain 2 assessed as percent of control at 2000 nM by KINOMEscan assay relative to control; design: scale not given: the % may be the effect or the level left

`CN(C)C(=O)c1ccc(N2CCCN(c3ccnc4sc(C(N)=O)c(N)c34)CC2)cc1` was tested, and the Activity [1] was 86% and 97%, the Activity [2] was 100% and 75% and the Activity [3] was 100% and 80%. For the same molecule, the EC200 [4] was 31.9 nM, the Activity (Myc-CaP) was “Active” and the Activity [5] was 98% and 99%. For the same molecule, the Activity [6] was 91% and 66%, the Activity [7] was 92% and 98% and the Activity [8] was 81% and 77%. For the same molecule, the Activity [9] was 81% and 83%, the Activity [10] was 100% and 83% and the Activity [11] was 97% and 85%. The Activity [12] was 88% and 83%, the Activity [13] was 93% and 94% and the Activity [14] was 100%. For the same molecule, the Activity [15] was 78% and 92%, the Activity [16] was 100% and the Activity [17] was 100%. For the same molecule, the Activity [18] was 100% and 86%, the Activity [19] was 94% and 79% and the Activity [20] was 90% and 96%. The Activity [21] was 100%, the Activity [22] was 100% and 95% and the Activity [23] was 94% and 92%. For the same molecule, the Activity [24] was 92%, the Activity [25] was 98% and the Activity [26] was 98% and 99%. The Activity [27] was 100%, the Activity [28] was 97% and 100% and the Activity [29] was 91% and 95%. The Activity [30] was 73% and 88%.
